Source: US20220400680A1, “USE OF ACYLCYANAMIDES OR SALTS THEREOF FOR REGULATING PLANT GROWTH” (Alzchem Trostberg GmbH, priority 2019, published 2022)

Key:
[1] = tested on: Table apple, type Zabergäu-Renette (C2); assay: Greenhouse test, cut apple branches C2 dipped in test solution, bud development stage; assay type: in vivo, Malus domestica; design: key to Bud development stage, apple branches C2: Stage 0: Buds unchanged; Stage 1: Buds slightly swollen, first green tips visible; Stage 2: strongly swollen, green buds; Stage 3: Buds before breaking open, leaf or flower root already visible; Stage 4: Flower buds fully developed, but still closed, white petals already visible. In the case of the grapevine, stage 4 was the unfolding of the first leaves; Stage 5: Flowers fully open or, in the case of grapevine, unfolding of the flower roots (“Gescheine”) on the fully leafed sprouts
Outline: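 Cut branches held in water jars in a greenhouse at about 22° C. under natural light after dipping in aqueous test solution: 0.15 mol substance (0.075 mol for bis-cyanamides) plus 0.15 g BreakThru OE-446 per 500 g. Bud development scored on a stage scale from closed buds to fully open flowers.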

[2] = tested on: Table cherry, type Burlat (C3); assay: Greenhouse test, cut cherry branches C3 dipped in test solution, bud development stage; assay type: in vivo, Prunus avium; design: key to Bud development stage, cherry branches C3: Stage 0: Buds unchanged; Stage 1: Buds slightly swollen, first green tips visible; Stage 2: strongly swollen, green buds; Stage 3: Buds before breaking open, leaf or flower root already visible; Stage 4: Flower buds fully developed, but still closed, white petals already visible. In the case of the grapevine, stage 4 was the unfolding of the first leaves; Stage 5: Flowers fully open or, in the case of grapevine, unfolding of the flower roots (“Gescheine”) on the fully leafed sprouts
Outline: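 Cut branches kept in water jars in a greenhouse at about 22° C. under natural light after dipping in aqueous solution of 0.15 mol test substance (0.075 mol for bis-cyanamides) plus 0.15 g BreakThru OE-446 per 500 g. Bud development scored on a stage scale from closed buds to fully open flowers.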

[3] = tested on: Grape, type Pinot Noir (C4); assay: Greenhouse test, cut wine sprouts C4 dipped in test solution, bud development stage; assay type: in vivo, Vitis vinifera subsp. vinifera; design: key to Bud development stage, wine sprouts C4: Stage 0: Buds unchanged; Stage 1: Buds slightly swollen, first green tips visible; Stage 2: strongly swollen, green buds; Stage 3: Buds before breaking open, leaf or flower root already visible; Stage 4: Flower buds fully developed, but still closed, white petals already visible. In the case of the grapevine, stage 4 was the unfolding of the first leaves; Stage 5: Flowers fully open or, in the case of grapevine, unfolding of the flower roots (“Gescheine”) on the fully leafed sprouts
Outline: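 Cut Pinot Noir grapevine sprouts were dipped in aqueous test solution (0.15 mol test substance, or 0.075 mol for bis-cyanamides, plus 0.15 g BreakThru OE-446 per 500 g total) and kept in water jars at about 22° C under natural light. Bud development was scored on a staged scale from closed buds to fully open flowers.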

[4] = tested on: table grapes type Red Globe; assay: Field test E2 table grapes Spain, bud burst; design: species or system Vitis vinifera; conditions: in vivo
Procedure: Three sections of a table grape plantation in southern Spain (type Red Globe) were treated with the following spray mixtures during the dormancy phase 45 days before natural bud burst (February 5):
E2-0: 600 liters per hectare of water with an addition of 0.1% Break-Thru® OE-446 E2-1: 600 liters per hectare of the spray mixture from example D-1 E2-18: 600 liters per hectare of the spray mixture from example D-18
As a result, the grapevine sprouts were evenly wetted.
On April 3, bud burst was recorded numerically.
Budding means number of buds that have developed at least one leaf after n days, based on the total number of buds on the sprouts at time n=0 days (day of application of spray mixture).

[5] = T1 (14 d), 0.15 mol (A-14, A-15: 0.075 mol) per 500 g solution
[6] = stage 4 reached or exceeded after 36 days vs negative control

CC(=O)NC#N.[Na] [Example A-1, Sodium Acetylcyanamide]
Bud development stage, apple branches C2 [1, 5]: 0 | Bud development stage, apple branches C2 ([1]; T2 (16 d)): 0 | Bud development stage, apple branches C2 ([1]; T3 (21 d)): 1 | Bud development stage, apple branches C2 ([1]; T4 (27 d)): 3 | Bud development stage, apple branches C2 ([1]; T5 (36 d)): 5 | Bud development stage, apple branches C2 ([1]; T6 (56 d)): 5 | Dormancy-breaking effect according to the definition, apple C2 [1, 6]: dormancy-breaking effect | Bud development stage, cherry branches C3 [2, 5]: 1 | Bud development stage, cherry branches C3 ([2]; T2 (16 d)): 2 | Bud development stage, cherry branches C3 ([2]; T3 (21 d)): 5 | Bud development stage, cherry branches C3 ([2]; T4 (27 d)): 5 | Bud development stage, cherry branches C3 ([2]; T5 (36 d)): 5 | Bud development stage, cherry branches C3 ([2]; T6 (56 d)): 5 | Good to very good dormancy-breaking effect, cherry C3 ([2]; stage 4 reached or exceeded after 21 days vs negative control): good to very good dormancy-breaking effect | Dormancy-breaking effect according to the definition, cherry C3 ([2]; stage 4 reached or exceeded after 27 days vs negative control): dormancy-breaking effect | Bud development stage, wine sprouts C4 [3, 5]: 0 | Bud development stage, wine sprouts C4 ([3]; T2 (16 d)): 0 | Bud development stage, wine sprouts C4 ([3]; T3 (21 d)): 0 | Bud development stage, wine sprouts C4 ([3]; T4 (27 d)): 1 | Bud development stage, wine sprouts C4 ([3]; T5 (36 d)): 4 | Bud development stage, wine sprouts C4 ([3]; T6 (56 d)): 5 | Dormancy-breaking effect according to the definition, wine C4 [3, 6]: dormancy-breaking effect | Effectiveness compared with prior art treatment with cyanamide [4]: as effective as the prior art treatment with cyanamide
